From the NIST ThermoML archive (doi:10.1021/acs.jced.7b00099)
Values joined by “and” are separate entries in the source; they are usually repeats but may differ in a detail not shown here. Equal values may be shown once.

Settings: Liquid, Closed cell (Static) method

CCCCCCCCCCCCCC [tetradecane]
Settings	vapor or sublimation pressure
351.75 K	0.124 kPa
353.15 K	0.1355 kPa and 0.1354 kPa
361.8 K	0.232 kPa
361.89 K	0.232 kPa
363.15 K	0.2517 kPa
371.91 K	0.422 kPa
373.15 K	0.4469 kPa and 0.4472 kPa
381.93 K	0.717 kPa
382.07 K	0.716 kPa
383.15 K	0.762 kPa and 0.763 kPa
391.95 K	1.186 kPa
392 K	1.186 kPa
393.15 K	1.254 kPa and 1.255 kPa
402.74 K	1.947 kPa
403.15 K	1.998 kPa
412.69 K	3.029 kPa
413.15 K	3.09 kPa and 3.086 kPa
422.55 K	4.545 kPa
423.15 K	4.652 kPa and 4.642 kPa
432.39 K	6.661 kPa
433.15 K	6.836 kPa and 6.812 kPa
442.49 K	9.461 kPa
443.15 K	9.776 kPa
452.49 K	13.46 kPa
453.15 K	13.75 kPa

CCCCCCCCCCCCCC(=O)OC [methyl tetradecanoate]
Settings	vapor or sublimation pressure [kPa]
353.15 K	0.0133
363.15 K	0.0267
373.15 K	0.0516
383.15 K	0.0959
393.15 K	0.1723
403.15 K	0.3003
413.15 K	0.509
423.15 K	0.839
433.15 K	1.35
443.15 K	2.123
453.15 K	3.27

CCCCCCCCCCCC(=O)OC [methyl dodecanoate]
Settings	vapor or sublimation pressure [kPa]
353.15 K	0.0644
363.15 K	0.1217
373.15 K	0.2212
383.15 K	0.388
393.15 K	0.657
403.15 K	1.08
413.15 K	1.728
423.15 K	2.694
433.15 K	4.104

CCCCCCCCCCCCCCCC(=O)OC [methyl hexadecanoate]
Settings	vapor or sublimation pressure [kPa]
373.15 K	0.0158
383.15 K	0.0294
393.15 K	0.0535
403.15 K	0.095
413.15 K	0.1644
423.15 K	0.2789
433.15 K	0.4635
443.15 K	0.756
453.15 K	1.21
